Measurements published in article PMC11173382, “In Vitro Investigations into the Potential Drug Interactions of Pseudoginsenoside DQ Mediated by Cytochrome P450 and Human Drug Transporters” (Molecules, 2024).
One block for each compound: values may come before it.

Assays:
hOCT2 = target: T1, hOCT2 (Homo sapiens, UniProt O15244); assay: Substrates uptake assay, S2-OCT2 cells (14C-TEA); assay type: in vitro ADME; settings: inhibitor 600 μM
T1 construct: host or cells: S2-OCT2
T1 sequence (O15244 1-555): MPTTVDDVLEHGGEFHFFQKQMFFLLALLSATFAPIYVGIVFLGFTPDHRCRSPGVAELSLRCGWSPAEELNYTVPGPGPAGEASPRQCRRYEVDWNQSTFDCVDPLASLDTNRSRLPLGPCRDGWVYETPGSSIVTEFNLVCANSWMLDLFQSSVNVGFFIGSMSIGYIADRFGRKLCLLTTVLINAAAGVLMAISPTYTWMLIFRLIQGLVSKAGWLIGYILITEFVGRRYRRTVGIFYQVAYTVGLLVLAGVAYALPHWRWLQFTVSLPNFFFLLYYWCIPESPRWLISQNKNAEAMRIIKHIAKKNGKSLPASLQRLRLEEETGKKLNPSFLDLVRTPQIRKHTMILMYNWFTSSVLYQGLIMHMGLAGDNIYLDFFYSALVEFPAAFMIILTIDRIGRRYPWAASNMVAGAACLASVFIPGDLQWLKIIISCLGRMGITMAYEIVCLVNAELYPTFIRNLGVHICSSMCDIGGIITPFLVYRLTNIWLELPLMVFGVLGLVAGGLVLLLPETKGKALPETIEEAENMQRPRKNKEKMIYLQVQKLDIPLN
From the text: (§1) Drug transporters mediate the cellular uptake and efflux of their substrates. Therefore, cell lines overexpressing a drug transporter can be utilized to investigate inhibitors of the transporter by assessing changes in substrate uptake. For each drug transporter, we selected a well-characterized inhibitor as the positive control. Radiolabeled substrates were used to indicate the decrease in transport efficiency when the drug transporters were inhibited by PDQ or the control inhibitors.
(§2) The concentrations of the control drugs and the substrates were stated in the assay details. Working solutions of the control inhibitors, the radiolabeled substrates, and each dose of PDQ were prepared at 200 times (200×) more concentrated solutions with DMSO for further dilution.
(§3) Transporter-overexpressed cell lines. Human organic anion transporter-overexpressed cell lines MDCKII-OAT1 and S2-OAT3, human organic anion transport polypeptide-overexpressed cell lines HEK293A-OATP1B1 and HEK293A-OATP1B3, human organic cation transporter 2-overexpressed cell line S2-OCT2, and human multi-drug resistance protein MDR1 (or P-gp)-overexpressed cell line MDCKII-MDR1 were gifts from Japan Fuji Biomedical Co., Ltd. (Fuji, Shizuoka Prefecture, Japan). Breast cancer resistance protein-overexpressed vesicles (sf9-BCRP vesicle) were purchased from GenoMembrane Co., Ltd. (Yokohama, Kanagawa, Japan).
(§4) Substrates uptake assay. In this assay, we studied the inhibition of PDQ against transporters OAT1, OAT3, OCT2, OATP1B1 and OATP1B3 with MDCKII-OAT1, S2-OAT3, S2-OCT2, HEK293A-OATP1B1and HEK293A-OATP1B3 cells, respectively. The radiolabeled substrates for OAT1, OAT3, OATP1B1, OATP1B3 and OCT2 were […], respectively (Table 5). Probenecid ([…]) was the positive control inhibitor of OAT1 and OAT3, while rifampicin ([…]) served as the control drug of OATP1B1 and OATP1B3. For OCT2, we used […] cimetidine to compare with the inhibitory effect of PDQ. Two times (2×) more concentrated working solutions of the drugs and the substrate were prepared with Dulbecco’s phosphate-buffered saline (DPBS, Gibco, Grand Island, NY, USA.). Then, an equal volume of 2× drug solution and 2× radiolabeled substrate solution were mixed as the working mix. All reagents were pre-warmed to 37 °C.
(§5) The cells were digested with 0.05% trypsin/EDTA. The density of the single-cell suspension was adjusted to 2.0 × 10^5 cells/mL for S2 cells and to 1.5 × 10^5 cells/mL for MDCK II and HEK293A cells. The cell suspension was then added to the reservoirs of the 24-well plate for culture until full confluency. The medium in the wells was removed, and the wells were washed with DPBS. Then, the plate was incubated for 10 min with pre-warmed DPBS in the wells. After removing DPBS, […] of working mix was added to each well to initiate the substrate uptake process. The reaction time was 5 min for S2-OCT2 cells, while the other four types of cells were incubated with the reaction mix for 2 min. Cold DPBS was used to terminate the substrate transportation. To each well, […] NaOH ([…]) was added to lyse the cells. Then, […] cell lysate was transferred to the counting vials, and 3 mL scintillation cocktail (Aquasol-2, PerkinElmer, Waltham, MA, USA) was added. […] Each sample was replicated three times (N = 3).
(§6) In = [100 × (U − U0)/(Uc − U0)]%(3)
(§7) The results were expressed as mean ± standard deviation (SD) and analyzed with GraphPad Prism 8.0 software (CA, USA). The IC50 of PDQ was curve-fitted with the FORECAST function. Statistical significance was calculated using a two-tailed test, and a p value < 0.05 was considered as significant.

CYP2C9 = tested on: CYP2C9; parameters: method as in PMID 30078466; settings: cited from earlier work
hOATP1B1 = target: T2, hOATP1B1 (Homo sapiens, UniProt Q9Y6L6); assay: Substrates uptake assay, HEK293A-OATP1B1 cells (3H-ES); assay type: in vitro ADME; settings: inhibitor 60 μM
T2 sequence (Q9Y6L6 1-691): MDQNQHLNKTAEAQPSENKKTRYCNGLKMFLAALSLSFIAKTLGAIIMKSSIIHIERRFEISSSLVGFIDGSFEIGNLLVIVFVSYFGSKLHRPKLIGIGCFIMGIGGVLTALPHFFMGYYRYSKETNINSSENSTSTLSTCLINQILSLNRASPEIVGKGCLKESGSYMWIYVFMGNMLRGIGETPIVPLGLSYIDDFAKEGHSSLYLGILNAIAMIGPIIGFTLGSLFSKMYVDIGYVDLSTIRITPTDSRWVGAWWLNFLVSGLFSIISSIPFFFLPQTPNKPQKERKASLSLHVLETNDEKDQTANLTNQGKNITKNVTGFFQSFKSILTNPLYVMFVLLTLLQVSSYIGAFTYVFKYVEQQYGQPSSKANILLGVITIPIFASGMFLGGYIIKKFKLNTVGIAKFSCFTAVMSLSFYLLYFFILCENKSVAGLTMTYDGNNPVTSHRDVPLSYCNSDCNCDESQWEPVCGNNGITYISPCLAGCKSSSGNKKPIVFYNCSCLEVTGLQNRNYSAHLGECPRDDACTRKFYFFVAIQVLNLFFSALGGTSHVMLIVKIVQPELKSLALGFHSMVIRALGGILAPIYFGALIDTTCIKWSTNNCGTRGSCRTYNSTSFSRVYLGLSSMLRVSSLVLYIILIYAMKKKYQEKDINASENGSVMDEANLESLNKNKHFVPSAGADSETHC

hOATP1B3 = target: T3, hOATP1B3 (Homo sapiens, UniProt Q9NPD5); assay: Substrates uptake assay, HEK293A-OATP1B3 cells (3H-EG); assay type: in vitro ADME; settings: inhibitor 60 μM
T3 sequence (Q9NPD5 1-702): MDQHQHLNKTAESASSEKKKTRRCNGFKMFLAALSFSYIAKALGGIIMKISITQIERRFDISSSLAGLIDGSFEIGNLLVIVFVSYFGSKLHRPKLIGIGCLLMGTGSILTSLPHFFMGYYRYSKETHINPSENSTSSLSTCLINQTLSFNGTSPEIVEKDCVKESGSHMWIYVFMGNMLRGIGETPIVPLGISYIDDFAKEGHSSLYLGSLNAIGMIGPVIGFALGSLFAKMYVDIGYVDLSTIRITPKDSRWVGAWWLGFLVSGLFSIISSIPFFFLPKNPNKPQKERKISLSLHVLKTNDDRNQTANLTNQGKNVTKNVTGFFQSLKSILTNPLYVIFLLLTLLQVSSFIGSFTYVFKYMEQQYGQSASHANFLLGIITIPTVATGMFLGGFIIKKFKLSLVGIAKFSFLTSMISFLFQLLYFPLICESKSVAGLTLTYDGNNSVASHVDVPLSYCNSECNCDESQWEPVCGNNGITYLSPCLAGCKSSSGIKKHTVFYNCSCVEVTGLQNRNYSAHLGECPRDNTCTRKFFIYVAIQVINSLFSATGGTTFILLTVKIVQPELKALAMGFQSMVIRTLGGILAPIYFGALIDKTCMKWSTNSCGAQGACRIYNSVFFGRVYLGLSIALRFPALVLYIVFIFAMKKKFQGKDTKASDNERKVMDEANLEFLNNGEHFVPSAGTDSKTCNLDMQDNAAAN
From the text: as §1, §2, §3, §4, §5, §6, §7

hOAT3 = target: T4, hOAT3 (Homo sapiens, UniProt Q8TCC7); assay: Substrates uptake assay, S2-OAT3 cells (3H-ES); assay type: in vitro ADME; settings: inhibitor 100 μM
T4 sequence (Q8TCC7 1-542): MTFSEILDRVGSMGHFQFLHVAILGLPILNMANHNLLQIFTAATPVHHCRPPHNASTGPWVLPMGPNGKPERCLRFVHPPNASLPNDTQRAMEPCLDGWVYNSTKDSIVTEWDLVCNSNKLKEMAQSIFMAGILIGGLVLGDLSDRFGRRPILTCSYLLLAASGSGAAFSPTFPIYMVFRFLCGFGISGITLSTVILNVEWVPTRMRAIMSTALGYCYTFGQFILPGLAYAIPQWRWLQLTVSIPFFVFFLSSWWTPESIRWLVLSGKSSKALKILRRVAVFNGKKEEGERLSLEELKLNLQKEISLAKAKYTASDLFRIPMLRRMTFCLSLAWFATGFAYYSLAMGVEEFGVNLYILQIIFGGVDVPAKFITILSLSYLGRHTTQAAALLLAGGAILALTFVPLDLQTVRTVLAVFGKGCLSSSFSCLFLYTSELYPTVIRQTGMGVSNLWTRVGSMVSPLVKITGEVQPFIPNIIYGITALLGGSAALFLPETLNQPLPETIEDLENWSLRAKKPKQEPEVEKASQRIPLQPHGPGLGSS
From the text: as §1, §2, §3, §4, §5, §6, §7

DPM (14C-TEA uptake by OCT2) (hOCT2): 417.3±44.8 DPM
Compound: CN/C(=N/CCSCc1nc[nH]c1C)NC#N [Cimetidine, reference compound]

Compound: CC(C)=CCC[C@](C)(O[C@@H]1O[C@H](CO[C@@H]2O[C@H](CO)[C@@H](O)[C@H](O)[C@H]2O)[C@@H](O)[C@H](O)[C@H]1O)[C@H]1CC[C@]2(C)[C@@H]1[C@H](O)C[C@@H]1[C@@]3(C)CC[C@H](O[C@@H]4O[C@H](CO)[C@@H](O)[C@H](O)[C@H]4O[C@@H]4O[C@H](CO)[C@@H](O)[C@H](O)[C@H]4O)C(C)(C)[C@@H]3CC[C@]12C [Ginsenoside Rb1]
IC50 (CYP2C9): 2400 nM

DPM (3H-ES uptake by OATP1B1) (hOATP1B1): 2798.7±891.8 DPM
DPM (3H-EG uptake by OATP1B3) (hOATP1B3): 769.0±126.5 DPM
Compound: CO[C@H]1/C=C/O[C@@]2(C)Oc3c(C)c(O)c4c(O)c(c(/C=N/N5CCN(C)CC5)c(O)c4c3C2=O)NC(=O)/C(C)=C\C=C\[C@H](C)[C@H](O)[C@@H](C)[C@@H](O)[C@@H](C)[C@H](OC(C)=O)[C@@H]1C [Rifampicin, reference compound]

DPM (3H-ES uptake by OAT3) (hOAT3): 1709.3±343.6 DPM
Compound: CCCN(CCC)S(=O)(=O)c1ccc(C(=O)O)cc1 [Probenecid, reference compound]
